Experimental data published in US20260048066A1, “TREATMENT OF NEURODEGENERATIVE DISORDERS UTILISING METHYLTHIONINIUM (MT)-CONTAINING COMPOUNDS” (WISTA LABORATORIES LTD, priority 2022, published 2026).
Read-outs that look alike come from different tables or passages of the source. One block for each compound: values may come before it.

Legend:
[1] = tested on: participants with severity ranging from mild cognitive impairment (MCI) to moderate AD; experiment: LUCIDITY Phase 3 trial: cognitive (ADAS-cog), functional (ADCS-ADL) and brain atrophy outcomes; assay type: in vivo, human
Excerpt: The LUCIDITY trial (NCT03446001; EudraCT: 2017-003558-17) is a Phase 3, randomized, double-blind, placebo-controlled, outpatient trial to evaluate the safety, efficacy, and tolerability of hydromethylthionine mesylate monotherapy in participants with severity ranging from mild cognitive impairment (MCI) to moderate AD. The initial 12-month blinded period is followed by a 12-month, open-label extension period to provide comparative, delayed-start data. There are 76 study sites located in Canada, France, Italy, Poland, Spain, United Kingdom and United States. The protocol was approved by an institutional review board or independent ethics committee at each site.
Following screening, eligible participants are randomized at baseline in a 4:1:4 ratio to receive hydromethylthionine mesylate 16 mg/day, hydromethylthionine mesylate 8 mg/day, or placebo. Following completion of the 52-week double-blind treatment period, all participants continue open-label treatment with hydromethylthionine mesylate 16 mg/day for a further 52 weeks. Participants who were randomized to start on HMTM are considered early-starters; patients who begin on placebo and switch to HMTM at week 52 are considered delayed starters. Unlike a traditional delayed start design, in which participants remain blinded to treatment throughout the trial, treatment during weeks 52 to 104 is open-label, although participants and the site study staff remain blinded to prior treatment assignment. Randomization was stratified by severity (three levels: MMSE 16-19, 20-25, or 26-27, with a target ratio of approximately 2:3:1), prior use of symptomatic treatments (AChEls and/or memantine-two levels: prior use or none), and region (two levels: Canada/USA or UK/Europe). To achieve this target, enrolment was monitored and controlled at the site level for high recruiting sites and capped as needed at the study level. Patients who dropped out after randomization were not replaced, but participants were encouraged to continue with study visits off treatment until the scheduled completion of the double-blind treatment period (Visit 7). Only participants who continued in the study and receive hydromethylthionine mesylate treatment up to and including the last visit (Visit 10) without the addition of concomitant AChEls and/or memantine were eligible for continued treatment in a subsequent expanded access program.
The active and placebo treatment formulations are tablets that look visually the same. Hydromethylthionine mesylate can cause variable urinary discoloration. Therefore, to maintain blinding, the placebo group receives tablets containing a urinary discolourant (MTC, 4 mg) included among blank tablets containing only excipients on a varying schedule with an average frequency of 2/week.
Dosing frequency of 4 mg MTC tablets was on a varying schedule, such that each patient received a 4 mg tablet among the blanks on average twice per week. All subjects (on all arms) received 4 tablets at two times of day. This allowed for 2×4 mg followed by 2×4 mg to give 16 mg/day dose. 4 tablets were also given daily for placebo (2×placebo then 2×placebo) with 4 mg MTC tablets inserted at a rate of 2 per week i.e. 2 MTC tablets out of 28 per week, with remainder being true placebo.
Participants had to be aged less than 90 years and meet the diagnostic criteria for probable AD or MCI-AD and must not have been taking an AChEl or memantine, for at least 60 days at Baseline. They must have been community-dwelling, have a mini mental state exam (MMSE) score of 16-27, and with functional impairment as evidenced by a Clinical Dementia Dating (CDR) stage of 0.5 to 2 at screening. […] All patients must also have at least one study partner, consenting to their own participation; study partners can be changed so long as they have sufficient contact to complete outcome and safety assessments meaningfully and verify compliance with trial treatment. […]

[2] = LUCIDITY trial: plasma HMT/MT levels; assay type: in vivo, human; conditions: MTC 4 mg twice weekly; after 12 months of treatment
[3] = LUCIDITY trial: plasma HMT/MT levels; assay type: in vivo; conditions: human, oral
Experimental: At Visits 2, 3, 7 and 10, timed morning blood samples are collected for determination of plasma level of the drug. Samples are collected prior to dosing and then at 1, 2, and 4 hours post dose. A single blood sample for apolipoprotein E (ApoE) is obtained from participants who provide informed consent at any time after eligibility determination and prior to Visit 7. Blood may also be analyzed for other biomarkers for possible future research related to determination of potential biomarker predictors or surrogates for treatment response, to be described in a separate protocol.
All patients received 16 mg/day (i.e. 8 mg twice daily) from Visit 7 onwards.
The steady-state plasma concentrations (Visit 4. 1 h post-dose) in each dosing arm was investigated further. Patients were grouped based on plasma concentration.

[4] = tested on: participants with severity ranging from mild cognitive impairment (MCI) to moderate AD; experiment: LUCIDITY trial: safety and tolerability; assay type: in vivo, human
Experimental: All safety assessments are performed during Screening to assess subject eligibility, by an independent qualified medical assessor not involved in efficacy assessments. For the enrolled participants, safety assessments are undertaken at Baseline and at each clinic visit after 4, 13, 26, 39, and 52 weeks during the double-blind treatment period, as well as after 56 (telephone assessment, or on-site in UK), 78, and 104 weeks in the open-label, delayed-start phase; when needed to follow up on a treatment-emergent adverse event (AE); and upon early termination (Table 1). Patients are followed as needed for the resolution or stabilization of any AE, consistent with the investigator's medical judgement.

[5] = Completed hydromethylthionine mesylate Phase 3 studies: estimated treatment effect; assay type: in vivo, human
Experimental: Sample size estimations to achieve 90% power (two-sided alpha=0.05) to detect a difference between hydromethylthionine mesylate 16 mg/day and placebo, the primary treatment group comparison in the double-blind treatment period, have been performed for the two co-primary clinical end points, assuming a withdrawal rate of 20% to 25%. The study sample size of approximately 450 is based on the ADCS-ADL23, which has a larger standard deviation (SD) than ADAS-Cog11. Based on an estimated decline in ADCS-ADL23 over 52 weeks in the control arm of 7.7 units with an estimated SD of 8.5 units, the study will have >90% power to detect a reduction in decline of 3.4 units or more. The 3.4-unit effect size is derived from an estimated treatment effect of 5.0±1.6 (mean±standard error) units in the completed hydromethylthionine mesylate studies. Based on an estimated decline of 6.5 units in ADAS-Cog11 over 52 weeks with an estimated SD of 5.9 units, 200 participants per treatment arm provide >90% power to detect a reduction in decline of 2.6 units or more, provided by a conservative value of the estimated treatment effect based on pooled completed Phase 3 studies of −5.2±1.3 (mean±standard error) units in completed hydromethylthionine mesylate studies.

[6] = tested on: red cells; conditions: in vivo, administered intravenously; cited from earlier work
[7] = 16 mg/day, whole study population, MCI to moderate disease

- AD patients with plasma levels above 0.10 ng/ml (Cmax) [2]: 89%
Compound: CN(C)c1ccc2nc3ccc(N(C)C)cc3[s+]c2c1 [MTC, methylthioninium chloride]
- treatment effect on ADAS-cog compared to expected decline ([1]; control group (4 mg MTC twice weekly), high plasma HMT group, 12 months): -4.73±2.01
- ADAS-cog decline ([1]; control group (4 mg MTC twice weekly), ultra-low plasma HMT cases, 12 months): 3.75±0.79

- concentration at 1 h ([3]; 8 mg/day, 8 mg/day LMTM arm, sub-group BLLOQ (set to zero), steady state 1 h post-dose, read-out: Mean HMT conc): 0 ng/mL
- concentration at 1 h ([3]; 8 mg/day, 8 mg/day LMTM arm, sub-group high, steady state 1 h post-dose, read-out: Mean HMT conc): 0.26 ng/mL
- concentration at 1 h ([3]; 8 mg/day, 8 mg/day LMTM arm, sub-group mid, steady state 1 h post-dose, read-out: Mean HMT conc): 0.05 ng/mL
- concentration at 1 h ([3]; 16 mg/day, 16 mg LMTM/day group, week 4, 1h post dose, read-out: overall mean plasma concentration): 0.5 ng/mL
- concentration at 1 h ([3]; 16 mg/day, 16 mg/day LMTM arm, sub-group BLLOQ (set to zero), steady state 1 h post-dose, read-out: Mean HMT conc): 0 ng/mL
- concentration at 1 h ([3]; 16 mg/day, 16 mg/day LMTM arm, sub-group high, steady state 1 h post-dose, read-out: Mean HMT conc): 0.5 ng/mL
- concentration at 1 h ([3]; 16 mg/day, 16 mg/day LMTM arm, sub-group mid, steady state 1 h post-dose, read-out: Mean HMT conc): 0.04 ng/mL
- concentration at 1 h ([3]; 16 mg/day, 16 mg/day LMTM arm, sub-group ultralow, steady state 1 h post-dose, read-out: Mean HMT conc): 0.02 ng/mL
Compound: CN(C)c1ccc2c(c1)Sc1cc(N(C)C)ccc1N2.CS(=O)(=O)O.CS(=O)(=O)O [LMTM, N,N,N′,N′-tetramethyl-10H-phenothiazine-3,7-diaminium bis(hydromethanesulfonate)]
- disease progression by change in cognitive function (p=0.0008) and brain atrophy (p<0.0001) against matched ADNI subjects ([1]; 16 mg/day): Statistically significant reductions in disease progression
- decline in cognitive and functional measures ([1]; 16 mg/day LMTM as monotherapy): zero or minimal decline
- decline on ADAS-cog11 over the first 12 months [1, 7]: 1.3 ADAS-cog11 units
- decline on ADCS-ADL23 over the first 12 months [1, 7]: −1.0 ADCS-ADL23 units
- cognitive improvement over baseline on the ADAS-cog13 scale ([1]; 105 patients with MCI, 16 mg/day, at 6 months (p=0.0002), 12 months (p=0.0391) and 18 months (p=0.0473)): 2 units
- cognitive decline in the first 9 months ([1]; 147 patients with mild/moderate AD, 16 mg/day): 2.5 unit
- cognitive decline over the following 9 months ([1]; 147 patients with mild/moderate AD, 16 mg/day, months 9 to 18): no further decline
- rate of progression of brain atrophy ([1]; MCI participants, HMTM 16 mg/day, versus ADNI MCI subjects (p<0.0001)): significantly less than in ADNI MCI subjects
- mean change on the instrumental activities of daily living subscale of ADCS-ADL ([1]; MCI patients, 16 mg/day, at 6, 12 and 18 months): remained above the pre-treatment baseline
- reduction in functional decline relative to published meta-analysis of placebo decline data ([1]; mild/moderate AD, 16 mg/day, ADCS-ADL): about 75%
- functional decline on the ADCS-ADL scale ([1]; mild/moderate AD, 16 mg/day, at 12 months): −2 units
- functional decline on the ADCS-ADL scale ([1]; mild/moderate AD, 16 mg/day, at 18 months): −3 units
- treatment effects on cognitive and functional decline versus placebo decline data of anti-amyloid trials ([1]; over 18 months): about three-fold larger
- treatment-related serious adverse events and amyloid related imaging abnormalities (ARIA) [4]: no treatment-related serious adverse events or evidence of amyloid related imaging abnormalities (ARIA)
- estimated treatment effect on ADCS-ADL23 (mean±standard error) ([5]; completed hydromethylthionine mesylate studies): 5.0±1.6 units
- estimated treatment effect on ADAS-Cog11 (mean±standard error) ([5]; pooled completed Phase 3 studies): −5.2±1.3 units
- MT uptake into red cells, fold higher compared with MTC [6]: approximately 20 fold

- concentration at 1 h ([3]; all dosing arms pooled, steady-state plasma, 1 h post-dose, read-out: Mean value HMT conc): 0.2 ng/mL
- concentration at 1 h ([3]; all dosing arms pooled, sub-group BLLOQ (values set to zero), 1 h post-dose, read-out: Mean value HMT conc): 0 ng/mL
- concentration at 1 h ([3]; all dosing arms pooled, sub-group high, 1 h post-dose, read-out: Mean value HMT conc): 0.41 ng/mL
- concentration at 1 h ([3]; all dosing arms pooled, sub-group mid, 1 h post-dose, read-out: Mean value HMT conc): 0.04 ng/mL
- concentration at 1 h ([3]; all dosing arms pooled, sub-group ultralow, 1 h post-dose, read-out: Mean value HMT conc): 0.01 ng/mL
Compound: CN(C)c1ccc2c(c1)Sc1cc(N(C)C)ccc1N2 [HMT, N3,N3,N7,N7-tetramethyl-10H-phenothiazine-3,7-diamine]
